Measured values taken from PubChem BioAssay (NCI).
“And” between values parts separate entries of the source, which are not always exact repeats. Equal entries are not always repeated.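 Interpolation was linear, between the two tested concentrations surrounding the appropriate level; five concentrations were tested over 48 hours in 96-well plates. GI50 is the concentration that inhibits growth by half. The concentration for full growth arrest is given as TGI.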

tested on: HL-60(TB) leukemia; assay: NCI-60 cell line screen, 48 h

SMILES | GI50 | TGI
COc1cc(/C=C/c2cc(/C=C/c3ccc(O)c(OC)c3)n(C(=O)Nc3ccc(F)c(Cl)c3)n2)ccc1O | 0.31 µM | 0.88 µM
CCCCCCCC/C=C/CCCCCCCC(=O)OC[C@H]1O[C@@H](n2ccc(N)nc2=O)C(F)(F)[C@@H]1O | 0.0217 µM | 28 µM
NS(=O)(=O)c1ccc(N=Nc2c(O)[nH]c3ccc(-c4cnco4)cc23)cc1 | > 25 µM | > 25 µM
COc1cc2c3c(n(CCCNC(=O)OCC4c5ccccc5-c5ccccc54)c(=O)c2cc1OC)-c1cc2c(cc1/C3=C\CCNC(=O)OCC1c3ccccc3-c3ccccc31)OCO2 | 18.1 µM | > 50 µM
N#C/C(=C1C=C(Br)/C(=N\O)C=C\1Cl)c1cccc2ccccc12 | – | 11.6 µM
COc1cc2nc3cc([N+](=O)[O-])ccc3c(NCCCNCCO)c2cc1OC | 0.463 µM | 4.32 µM
COC(=O)[C@@H](C)CNS(=O)(=O)N(c1cc(C(F)(F)F)cc(C(F)(F)F)c1)C1CCN(Cc2ccc(F)cc2)CC1 | 4.69 µM | 18.2 µM
C=C1C(=O)O[C@@H]2/C=C(\C)CC/C=C(/COC(C)=O)C[C@@H](OC(C)=O)[C@@H]12 | – | 8.52 µM
COC(=O)[C@H](C)NC(=O)NC(=O)NC(=O)CI | 2.15 µM | 4.51 µM
COc1cc2c(c(OC)c1OC)-c1ccc(OC)c(=O)cc1[C@@H](NC(=O)c1ccccc1)CC2 | – | < 0.013 µM
CN1C/C=C\CCOc2cccc(c2)-c2ccnc(n2)Nc2cccc(c2)C1 | 0.0232 µM | 0.103 µM
C[C@@]12CC=C3c4nc(Nc5cccc(O)c5)sc4CC[C@]3(C)[C@H]1CC[C@]1(C)C(=O)CC[C@@H]21 | 2.35 µM | 6.48 µM
CN1C(=O)c2cccc3cc([N+](=O)[O-])cc(c23)C1=O | – | > 10 µM
Oc1ccccc1C(Sc1nc2ccccc2s1)Sc1nc2ccccc2s1 | – | > 100 µM
COC1=C(C)C(=O)c2c(c(COC(N)=O)c3n2CC2C3N2C)C1=O (stereo unspecified) | – | 0.17 µM

tested on: HOP-62 NSCLC; assay: NCI-60 cell line screen, 48 h

SMILES | GI50 | TGI
O=C(N/N=C/c1ccc(Cl)cc1)c1ccc(C(F)(F)F)nc1Nc1cccc(C(F)(F)F)c1 | 2.47 µM | 10.9 µM
COc1cc2ncnc(Nc3ccc(C)c(O)c3)c2cc1OC | > 25 µM | > 25 µM
COC(=O)C1=CNC=C(C(=O)OC)C1C1=CC(=O)C(C)=CC1=O | 14.8 µM | 28.2 µM
C=C1C(=O)O[C@H]2[C@H]1CC/C(COC(=O)C(=O)c1cn(Cc3ccccc3)c3ccccc13)=C\CC[C@@]1(C)O[C@@H]21 | 2.03 µM | 5.51 µM
Cc1cc(S(=O)(=O)Nc2nnc(-c3ccccc3)c(-c3ccccc3)n2)c(SCC(N)=O)cc1Cl | 52.5 µM | > 100 µM
COC(C(O)CO)C(O)C(O)C(=O)NNc1ccccc1 (stereo unspecified) | – | > 100 µM
NS(=O)(=O)c1ccc(NC2(C(=O)O)CCCC2)cc1 | – | > 100 µM
O=C(O)C1OC(n2cc(F)c(=O)[nH]c2=O)CC1O (stereo unspecified) | – | > 89.2 µM
N=C1C(c2nc3ccccc3s2)=C(O)CN1c1cc(C(F)(F)F)ccc1Cl | 18.4 µM | > 100 µM
CC(=O)CSCc1ccccn1 | – | > 100 µM
COc1ccccc1CNCCCN1C(=O)c2ccc3c4c(ccc(c24)C1=O)C(=O)N(CCCOCCCCOCCCN)C3=O | 1.32 µM | 2.73 µM
CCOC(=O)[C@@H](N)CCC(=O)N[C@@H](CSCc1ccccc1)C(=O)N[C@@H](C(=O)OCC)c1ccccc1 | 16.6 µM | 32.8 µM
COc1ccc(Nc2c3ccccc3nc3occc23)cc1 | 5.42 µM | 30.1 µM
COc1cc(/C=C/c2cc(/C=C/c3ccc(O)c(OC)c3)n(C(=O)Nc3ccc(F)c(Cl)c3)n2)ccc1O | 0.409 µM | 1.59 µM
CCCCCCCC/C=C/CCCCCCCC(=O)OC[C@H]1O[C@@H](n2ccc(N)nc2=O)C(F)(F)[C@@H]1O | < 0.0209 µM | –
NS(=O)(=O)c1ccc(N=Nc2c(O)[nH]c3ccc(-c4cnco4)cc23)cc1 | > 25 µM | > 25 µM
COc1cc2c3c(n(CCCNC(=O)OCC4c5ccccc5-c5ccccc54)c(=O)c2cc1OC)-c1cc2c(cc1/C3=C\CCNC(=O)OCC1c3ccccc3-c3ccccc31)OCO2 | – | > 24.3 µM
N#C/C(=C1C=C(Br)/C(=N\O)C=C\1Cl)c1cccc2ccccc12 | – | 26.4 µM
COc1cc2nc3cc([N+](=O)[O-])ccc3c(NCCCNCCO)c2cc1OC | 0.146 µM | 0.422 µM
COC(=O)[C@@H](C)CNS(=O)(=O)N(c1cc(C(F)(F)F)cc(C(F)(F)F)c1)C1CCN(Cc2ccc(F)cc2)CC1 | 15 µM | 29 µM
C=C1C(=O)O[C@@H]2/C=C(\C)CC/C=C(/COC(C)=O)C[C@@H](OC(C)=O)[C@@H]12 | – | 72.6 µM
COC(=O)[C@H](C)NC(=O)NC(=O)NC(=O)CI | 17.2 µM | 32.6 µM
COc1cc2c(c(OC)c1OC)-c1ccc(OC)c(=O)cc1[C@@H](NC(=O)c1ccccc1)CC2 | < 0.003 µM | 30 µM and > 100 µM
CN1C/C=C\CCOc2cccc(c2)-c2ccnc(n2)Nc2cccc(c2)C1 | 0.0482 µM | 0.402 µM
C[C@@]12CC=C3c4nc(Nc5cccc(O)c5)sc4CC[C@]3(C)[C@H]1CC[C@]1(C)C(=O)CC[C@@H]21 | 2.75 µM | 8.12 µM
CN1C(=O)c2cccc3cc([N+](=O)[O-])cc(c23)C1=O | – | > 10 µM
Oc1ccccc1C(Sc1nc2ccccc2s1)Sc1nc2ccccc2s1 | – | > 100 µM
COC1=C(C)C(=O)c2c(c(COC(N)=O)c3n2CC2C3N2C)C1=O (stereo unspecified) | – | 0.074 µM

tested on: HT29 colon; assay: NCI-60 cell line screen, 48 h

SMILES | GI50 | TGI
O=C(N/N=C/c1ccc(Cl)cc1)c1ccc(C(F)(F)F)nc1Nc1cccc(C(F)(F)F)c1 | 1.44 µM | 11.7 µM
COc1cc2ncnc(Nc3ccc(C)c(O)c3)c2cc1OC | 14.7 µM | > 25 µM
COC(=O)C1=CNC=C(C(=O)OC)C1C1=CC(=O)C(C)=CC1=O | 29.9 µM | > 100 µM
C=C1C(=O)O[C@H]2[C@H]1CC/C(COC(=O)C(=O)c1cn(Cc3ccccc3)c3ccccc13)=C\CC[C@@]1(C)O[C@@H]21 | 2.02 µM | 4.53 µM
Cc1cc(S(=O)(=O)Nc2nnc(-c3ccccc3)c(-c3ccccc3)n2)c(SCC(N)=O)cc1Cl | > 100 µM | > 100 µM
COC(C(O)CO)C(O)C(O)C(=O)NNc1ccccc1 (stereo unspecified) | – | > 100 µM
NS(=O)(=O)c1ccc(NC2(C(=O)O)CCCC2)cc1 | – | > 100 µM
O=C(O)C1OC(n2cc(F)c(=O)[nH]c2=O)CC1O (stereo unspecified) | – | > 100 µM
N=C1C(c2nc3ccccc3s2)=C(O)CN1c1cc(C(F)(F)F)ccc1Cl | 25.8 µM | > 100 µM
CC(=O)CSCc1ccccn1 | – | > 100 µM
COc1ccccc1CNCCCN1C(=O)c2ccc3c4c(ccc(c24)C1=O)C(=O)N(CCCOCCCCOCCCN)C3=O | 0.402 µM | 1.29 µM
CCOC(=O)[C@@H](N)CCC(=O)N[C@@H](CSCc1ccccc1)C(=O)N[C@@H](C(=O)OCC)c1ccccc1 | 16.6 µM | 33.6 µM
COc1ccc(Nc2c3ccccc3nc3occc23)cc1 | 1.49 µM | –
COc1cc(/C=C/c2cc(/C=C/c3ccc(O)c(OC)c3)n(C(=O)Nc3ccc(F)c(Cl)c3)n2)ccc1O | 1.31 µM | 4.26 µM
CCCCCCCC/C=C/CCCCCCCC(=O)OC[C@H]1O[C@@H](n2ccc(N)nc2=O)C(F)(F)[C@@H]1O | 0.097 µM | > 100 µM
NS(=O)(=O)c1ccc(N=Nc2c(O)[nH]c3ccc(-c4cnco4)cc23)cc1 | > 25 µM | > 25 µM
COc1cc2c3c(n(CCCNC(=O)OCC4c5ccccc5-c5ccccc54)c(=O)c2cc1OC)-c1cc2c(cc1/C3=C\CCNC(=O)OCC1c3ccccc3-c3ccccc31)OCO2 | 21.5 µM | > 50 µM
N#C/C(=C1C=C(Br)/C(=N\O)C=C\1Cl)c1cccc2ccccc12 | – | 6.79 µM
COc1cc2nc3cc([N+](=O)[O-])ccc3c(NCCCNCCO)c2cc1OC | 0.212 µM | 0.569 µM
COC(=O)[C@@H](C)CNS(=O)(=O)N(c1cc(C(F)(F)F)cc(C(F)(F)F)c1)C1CCN(Cc2ccc(F)cc2)CC1 | 3.78 µM | 14.6 µM
C=C1C(=O)O[C@@H]2/C=C(\C)CC/C=C(/COC(C)=O)C[C@@H](OC(C)=O)[C@@H]12 | – | > 40.9 µM
COC(=O)[C@H](C)NC(=O)NC(=O)NC(=O)CI | 18.1 µM | 36.4 µM
COc1cc2c(c(OC)c1OC)-c1ccc(OC)c(=O)cc1[C@@H](NC(=O)c1ccccc1)CC2 | 0.00658 µM | –
CN1C/C=C\CCOc2cccc(c2)-c2ccnc(n2)Nc2cccc(c2)C1 | 0.0497 µM | 0.976 µM
C[C@@]12CC=C3c4nc(Nc5cccc(O)c5)sc4CC[C@]3(C)[C@H]1CC[C@]1(C)C(=O)CC[C@@H]21 | 1.96 µM | 6.43 µM
CN1C(=O)c2cccc3cc([N+](=O)[O-])cc(c23)C1=O | – | > 10 µM
Oc1ccccc1C(Sc1nc2ccccc2s1)Sc1nc2ccccc2s1 | – | > 100 µM
COC1=C(C)C(=O)c2c(c(COC(N)=O)c3n2CC2C3N2C)C1=O (stereo unspecified) | – | 0.314 µM

tested on: NCI/ADR-RES ovarian; assay: NCI-60 cell line screen, 48 h

SMILES | GI50 | TGI
O=C(N/N=C/c1ccc(Cl)cc1)c1ccc(C(F)(F)F)nc1Nc1cccc(C(F)(F)F)c1 | 1.96 µM | 6.99 µM
